Measurements reported in paper PMC5374206, “Anti-bacterial and Anti-biofilm Evaluation of Thiazolopyrimidinone Derivatives Targeting the Histidine Kinase YycG Protein of Staphylococcus epidermidis” (Frontiers in Microbiology, 2017).
≈ marks a conversion by molar mass, not a printed value. Entries after “also recorded” stand apart in the source; their conditions may differ. Like-named read-outs stand apart in the source and are kept apart here.

How the values were obtained:
[1] = Erythrocyte hemolysis assay; assay type: cell-based; settings: human, erythrocytes (5% suspension), 37°C; for hemolysis at 1 h, 200 µM: at 200 μM; for hemolysis at 1 h: at MIC (against S epidermidis ATCC 35984)
Protocol: Hemolytic activities of the derivatives were measured on healthy human erythrocytes. A pure suspension of erythrocytes was obtained by washing a blood sample with sterile 0.9% NaCl saline solution. Erythrocytes were resuspended in normal saline to give a 5% solution, then treated with MIC, 4 × MIC or 200 μM of the derivatives for 1 h at 37°C in 96-well microtiter plates. After the incubation and centrifugation at 1,000 g for 10 min, supernatants were transferred to another sterile plate and the absorbance at 570 nm was measured on a spectrophotometric microplate reader. A positive control (100% hemolysis) and a negative control (0% hemolysis) were achieved by incubating with 1% Triton-X 100 and 0.1% DMSO, respectively. Each assay was performed in triplicate and repeated three times.

[2] = test system: S. epidermidis ATCC 35984; test: Time-kill assay against fast-growing S. epidermidis; assay type: cell-based, Staphylococcus epidermidis; settings: 4 × MIC; within/after 1 h; inoculum ~1 × 10^7 CFU/mL; MHB
Protocol: Suspensions of S. epidermidis (1 × 10^7 CFU/mL) were prepared and separately treated with the derivatives of compound 5 or vancomycin at concentrations of 4 × MIC in fresh MHB. Time-kill experiments were performed at 37°C with shaking at 220 rpm under aerobic conditions. Aliquots (1 mL) were removed from the culture medium at different time points (0, 1, 3, 5, 8, and 24 h), serially diluted and 100 μL of each of the dilutions plated out onto tryptic soy agar. After incubating at 37°C for 24 h, emergent bacterial colonies were counted, and the activity of the derivatives against fast-growing S. epidermidis cells was determined by plotting log10 colony counts (CFU/mL) against time. Bactericidal activity was defined as a 3-log10 decrease in CFU/mL. This assay was performed in triplicate and similar results were obtained.

[3] = test system: S. epidermidis ATCC 12228; test: MIC tube-dilution assay; assay type: cell-based; settings: Staphylococcus epidermidis, ATCC12228
Protocol: (§1) The MIC assays of the derivatives of compound 5 against S. epidermidis, S. aureus, MRSA and E. coli were performed by using the methods described previously by Wiegand et al. ([2008]). In brief, two-fold serial dilutions of the derivatives were prepared in tubes containing 4 mL MHB medium, yielding final concentrations from 200 to 0.78 μM. Bacterial cultures were grown overnight and adjusted so that the bacterial suspension turbidity was equivalent to a 0.5 McFarland standard (~1 × 10^8 CFU/mL) and further diluted to 1:200 into MHB medium. The contents in the tubes were mixed thoroughly and incubated at 37°C with shaking at 220 rpm for 16–20 h. The MIC endpoint was defined as the lowest concentration at which there was no visible growth in the tubes. The MBC values were assessed by plating 100 μL samples from each negative (no visible bacterial growth) culture tube from the MIC assays onto blank MHB agar plates. After incubation at 37°C for 24 h, the bacterial colonies on the plates were counted. The MBC was the concentration at which a 99.9% reduction of the original inoculum was observed (Pridmore et al., [2011]). In this assay, all the experiments were performed three times.

[4] = test system: S. aureus ATCC 49230; test: MIC tube-dilution assay; assay type: cell-based; settings: Staphylococcus aureus, ATCC49230
Protocol: as §1

[5] = test system: S. epidermidis ATCC 35984 biofilm formation; test: Flow-based biofilm inhibition assay (BioFlux); assay type: cell-based, Staphylococcus epidermidis; settings: 2 × MIC; shear 0.15 dyn/cm^2; 16 h; result in words
Protocol: The microfluidic channels of BioFlux 48-well plates (Fluxion Biosciences, South San Francisco, CA, USA) were primed with pre-warmed (37°C) TSB medium from the outlet well at a shear setting of 2 dyn/cm^2 for 10 min. Overnight bacterial culture of S. epidermidis ATCC 35984 was subcultured to mid-log phase and then diluted 1:200 in MHB medium, bacteria were seeded from the outlet well into the channel and viewing window at a shear setting of 2 dyn/cm^2 for 3 s. […] Growth of the biofilms was monitored for up to 16 h. Images of different stages were automatically acquired at 10 min intervals with bright-field illumination.

[6] = test system: methicillin-resistant S. aureus (MRSA) clinical isolates; test: MIC and MBC against clinical MRSA isolates; assay type: cell-based; settings: Staphylococcus aureus
Protocol: S. epidermidis ATCC 12228 (biofilm negative), S. epidermidis ATCC 35984 (biofilm positive), S. aureus ATCC 49230 and Escherichia coli ATCC 25922 were used in this study. Six clinical methicillin-resistant S. aureus (MRSA) isolates were collected from the Department of Clinical Laboratory, Shanghai General Hospital, School of Medicine, Shanghai Jiaotong University, China. Staphylococcal strains were grown in tryptic soy broth (TSB; Oxoid Ltd., Basingstoke, England), and E. coli strains were grown in Luria-Bertani broth medium. Mueller-Hinton broth (MHB; Oxoid Ltd., Basingstoke, England) was used for antimicrobial susceptibility testing. Vancomycin and ampicillin were obtained from the Sigma Chemical Co. (St Louis, MO, USA).
as §1

[7] = Aqueous solubility observation; assay type: physicochemical; settings: 200 μM; precipitated after incubation at 37°C for 12 h; result in words
[8] = test system: MRSA strain 226 young biofilms; test: Microtiter plate assay of 6 h young biofilms of MRSA; assay type: cell-based, S. aureus
Protocol: The biofilm-killing effect for immature (6 h old) biofilms was determined in TSB using a semi-quantitative assay. An overnight culture was diluted 1:200 into TSB medium with 0.25% glucose, and incubated in polystyrene 96-well plates at 37°C for 6 h. Biofilms were exposed to two-fold serial dilutions of the derivatives, and the plates were incubated for another 18 h at 37°C. Following the incubation and removal of non-adherent cells with 200 μl of phosphate-buffered saline, adherent biofilms were fixed with 95% methanol and stained with 2% (w/v) crystal violet. Then, the wells were washed three times with sterile distilled water and the plates were air dried for 2 h. The optical density of each well at 570 nm was determined using a 96-well plate spectrophotometer (DTX880, Beckman Coulter, USA).

[9] = MRSA strain 66, ST239, read-out: MIC
[10] = MRSA strain 69, ST217, read-out: MIC
[11] = MRSA strain 141, ST5, read-out: MIC
[12] = MRSA strain 226, ST59, read-out: MIC
[13] = MRSA strain 258, ST239, read-out: MIC
[14] = MRSA strain 260, ST764, read-out: MIC
[15] = range over six isolates, read-out: MICs against six MRSA clinical isolates

Compound	hemolysis at 1 h, 200 µM [1] [%]	hemolysis at 1 h [1] [%]	reduction in CFU/mL [2] [log]	MIC [3] [µM]	MIC [4] [µM]	biofilm formation under shearing forces [5]	MBC ([6]; MRSA strain 66, ST239) [µM]	MIC [6, 9] [µM]	MBC ([6]; MRSA strain 69, ST217) [µM]	MIC [6, 10] [µM]	MBC ([6]; MRSA strain 141, ST5) [µM]	MIC [6, 11] [µM]	MBC ([6]; MRSA strain 226, ST59) [µM]	MIC [6, 12] [µM]	MBC ([6]; MRSA strain 258, ST239) [µM]	MIC [6, 13] [µM]	MBC ([6]; MRSA strain 260, ST764) [µM]	MIC [6, 14] [µM]	MIC [6, 15] [µM]	minimal biofilm-killing concentration [8] [µM]	further results
CCOC(=O)C1=C(c2ccccc2)N=c2sc(=Cc3ccc(-c4ccc(C(=O)O)cc4)o3)c(=O)n2C1c1ccc(F)cc1 (stereo not shown) [H5-35, 2-[5-(4-carboxy-phenyl)-furan-2-ylmethylene]-5-(4-fluoro-phenyl)-3-oxo-7-phenyl-2,3-dihydro-5H-thiazolo[3,2-a]pyrimidine-6-carboxylic acid ethyl ester]	0.27 ± 0.1	0.17 ± 0.05	3	3.13 (≈ 1.86 µg/mL)	6.25 (≈ 3.72 µg/mL)	significant decrease in the biofilm formation; also recorded: strongly inhibited biofilm formation	200 (≈ 119 µg/mL)	3.13 (≈ 1.86 µg/mL)	50 (≈ 29.7 µg/mL)	6.25 (≈ 3.72 µg/mL)	200 (≈ 119 µg/mL)	6.25 (≈ 3.72 µg/mL)	100 (≈ 59.5 µg/mL)	6.25 (≈ 3.72 µg/mL)	200 (≈ 119 µg/mL)	6.25 (≈ 3.72 µg/mL)	200 (≈ 119 µg/mL)	6.25 (≈ 3.72 µg/mL)	3.13 to 6.25 (≈ 1.86 to 3.72 µg/mL)	200	aqueous solubility [7]: limited aqueous solubility
O=C(O)c1cccc(-c2ccc(C=c3sc4n(c3=O)C(c3ccc(F)cc3)C=C(c3ccccc3)N=4)o2)c1 (stereo not shown) [H5-33, 3-{5-[5-(4-fluoro-phenyl)-3-oxo-7-phenyl-5H-thiazolo [3,2-a]pyrimidin-2-ylidenemethyl]-furan-2-yl}-benzoic acid]	0.32 ± 0.05	0.15 ± 0.06	3	3.13 (≈ 1.64 µg/mL)	3.13 (≈ 1.64 µg/mL)	significant decrease in the biofilm formation; also recorded: strongly inhibited biofilm formation	200 (≈ 105 µg/mL)	6.25 (≈ 3.27 µg/mL)	50 (≈ 26.1 µg/mL)	6.25 (≈ 3.27 µg/mL)	200 (≈ 105 µg/mL)	6.25 (≈ 3.27 µg/mL)	200 (≈ 105 µg/mL)	6.25 (≈ 3.27 µg/mL)	200 (≈ 105 µg/mL)	6.25 (≈ 3.27 µg/mL)	200 (≈ 105 µg/mL)	6.25 (≈ 3.27 µg/mL)	3.13 to 6.25 (≈ 1.64 to 3.27 µg/mL)	200	–
CCOC(=O)C1=C(c2ccccc2)N=c2sc(=Cc3ccc(-c4cccc(C(=O)O)c4)o3)c(=O)n2C1c1ccc(F)cc1 (stereo not shown) [H5-32, 2-[5-(3-carboxy-phenyl)-furan-2-ylmethylene]-5-(4-fluoro-phenyl)-3-oxo-7-phenyl-2,3-dihydro-5H-thiazolo[3,2-a]pyrimidine-6-carboxylic acid ethyl ester]	0.24 ± 0.05	0.15 ± 0.05	3	6.25 (≈ 3.72 µg/mL)	3.13 (≈ 1.86 µg/mL)	significant decrease in the biofilm formation; also recorded: strongly inhibited biofilm formation	100 (≈ 59.5 µg/mL)	3.13 (≈ 1.86 µg/mL)	50 (≈ 29.7 µg/mL)	3.13 (≈ 1.86 µg/mL)	100 (≈ 59.5 µg/mL)	6.25 (≈ 3.72 µg/mL)	50 (≈ 29.7 µg/mL)	6.25 (≈ 3.72 µg/mL)	200 (≈ 119 µg/mL)	3.13 (≈ 1.86 µg/mL)	100 (≈ 59.5 µg/mL)	6.25 (≈ 3.72 µg/mL)	3.13 to 6.25 (≈ 1.86 to 3.72 µg/mL)	200	–
CCOC(=O)C1=C(c2ccccc2)N=c2sc(=Cc3ccc(-c4ccc(C(=O)O)cc4)o3)c(=O)n2C1c1ccc(Cl)cc1 (stereo not shown) [H5-34, 2-[5-(4-carboxy-phenyl)-furan-2-ylmethylene]-5-(4-chloro-phenyl)-3-oxo-7-phenyl-2,3-dihydro-5H-thiazolo[3,2-a]pyrimidine-6-carboxylic acid ethyl ester]	0.19 ± 0.01	0.22 ± 0.57	3	3.13 (≈ 1.91 µg/mL)	3.13 (≈ 1.91 µg/mL)	significant decrease in the biofilm formation; also recorded: strongly inhibited biofilm formation	200 (≈ 122 µg/mL)	3.13 (≈ 1.91 µg/mL)	50 (≈ 30.6 µg/mL)	6.25 (≈ 3.82 µg/mL)	200 (≈ 122 µg/mL)	6.25 (≈ 3.82 µg/mL)	100 (≈ 61.1 µg/mL)	6.25 (≈ 3.82 µg/mL)	200 (≈ 122 µg/mL)	6.25 (≈ 3.82 µg/mL)	200 (≈ 122 µg/mL)	6.25 (≈ 3.82 µg/mL)	3.13 to 6.25 (≈ 1.91 to 3.82 µg/mL)	200	aqueous solubility [7]: limited aqueous solubility
